Target: T1, human CB1 receptor (Homo sapiens, UniProt P21554)
T1 construct: expressed in transfected cells; membranes used
Assay: Cannabinoid Receptor-1 functional assay: inhibition of CP55940-induced [35S]GTPγS binding to membranes of CHO-K1 cells expressing human CB1
Assay type: biochemical
Details: 3 nM CP55940, [35S]GTPγS SPA, hCB1 membranes; read-out: IC50 value for antagonizing a CB1 receptor agonist
Outline: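 Membranes (5 μg/well) from CHO-K1 cells stably expressing human CB1 incubated 1 hr at room temperature with 1 nM [35S]GTPγS, 3 nM CP55940 and test compound in HEPES pH 7.5 buffer with 1 μM GDP, saponin. Bound label read by SPA after 30 min with beads; IC50 by non-linear regression.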

T1 sequence (P21554 whole entry): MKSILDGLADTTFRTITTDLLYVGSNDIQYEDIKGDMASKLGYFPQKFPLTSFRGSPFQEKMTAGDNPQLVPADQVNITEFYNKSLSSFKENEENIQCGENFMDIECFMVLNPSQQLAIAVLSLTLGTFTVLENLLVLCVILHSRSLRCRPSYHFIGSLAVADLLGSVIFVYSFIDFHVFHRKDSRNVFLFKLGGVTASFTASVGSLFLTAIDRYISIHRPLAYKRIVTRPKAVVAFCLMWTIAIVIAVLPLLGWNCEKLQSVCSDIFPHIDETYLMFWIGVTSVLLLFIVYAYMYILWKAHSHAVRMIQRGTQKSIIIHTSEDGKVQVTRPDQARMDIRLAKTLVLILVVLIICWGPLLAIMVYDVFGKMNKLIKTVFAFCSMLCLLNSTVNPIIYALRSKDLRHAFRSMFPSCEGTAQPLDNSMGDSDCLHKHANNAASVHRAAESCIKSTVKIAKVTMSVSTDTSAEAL

O=C(O)Cc1c(C(=O)N2CCC(O)(c3cccnc3)CC2)nn(-c2ccccc2Cl)c1-c1ccc(Cl)cc1 [Compound [1.8], [1-(2-Chloro-phenyl)-5-(4-chloro-phenyl)-3-(4′-hydroxy-3′,4′,5′,6′-tetrahydro-2′H-[3,4′]bipyridinyl-1′-carbonyl)-1H-pyrazol-4yl]-acetic acid]
IC50: 3 to 10 µM

Cc1ccc(C2(O)CCN(C(=O)c3nn(-c4ccccc4Cl)c(-c4ccc(Cl)cc4)c3CC(=O)O)CC2)nc1 [[1.22], [5-(4-Chloro-phenyl)-1-(2-chloro-phenyl)-3-(4′-hydroxy-5-methyl-3′,4′,5′,6′-tetrahydro-2′H-[2,4′]bipyridinyl-1′-carbonyl)-1H-pyrazol-4-yl]-acetic acid]
IC50: 0.3 to 3 µM

From patent US8148404B2, “Modulators of CB1 receptors” (7TM Pharma A/S, priority 2006, dated 2012)
